Patent publication US9429582B2, “Tyrosine-phosphorylated WBP2, a novel cancer target and biomarker” (National University of Singapore, priority 2010, dated 2016)
Like-named read-outs stand apart in the source and are kept apart here.

How the values were obtained:
Assay type in all cases: cell-based, human
ERα = test: Immunoblot of ERα expression in drug-treated WBP2-Y192-231E mutant-expressing MCF7
Method: For cells co-transfected ERE-luciferase, they were either left alone or stimulated with 50 ng/ml Wnt3a ligand for 16 hrs. TCF/ERα luciferase activities in various conditions were then assayed. **P<0.01, ***P<0.001, Student's t-test (2-tailed). […] Cell numbers were measured.
Their expression levels were quantified in three independent experiments and the averages were presented relative to actin. […] For cells co-transfected ERE luciferase, they were either left alone or stimulated with 50 ng/ml Wnt3a ligand for 16 hrs. TCF(C)/ER[…](D) luciferase activities in various conditions were then assayed and analyzed in relative to untreated vector control. **P<0.01, ***P<0.001, Student's t-test (2-tailed). […] Cell numbers were measured daily and compared in relative to vehicle treated vector-expressing cells on Day 0. […] Cell numbers were measured and compared in relative to vehicle-treated cells. […] Cell numbers were measured on day 2 and day 4 and compared in relative to vehicle-treated control at each day (Top Panel). These treated cells were harvested for IB analysis with antibodies indicated (Bottom Panel).
First, we exposed WBP2 phospho-mimic expressing MCF7 cells to serial concentrations of fulvestrant (0.1 nM, 1 nM, 10 nM, 100 nM and 1 μM) and probed for ERα expression to determine the effective working concentration. […] Next, we compared the growth and proliferation of WBP2 phospho-mimic mutant expressing MCF7 in the presence of 100 nM fulvestrant or 15 μM FH535.

vector-expressing MCF7 = test: Cell proliferation (MTS / cell numbers) of vector-expressing MCF7; conditions: Homo sapiens, 96 h; MCF7 cells expressing vector; day 4; 100 nM fulvestrant or 15 μM FH535; read-out: inhibition of growth / reduction of proliferation
Method: (§1) A: Whole cell lysates from vector, WBP2-WT, WBP2-Y192-231E mutant and WBP2-Y192-231F mutant expressing MCF7 or Y192-231E mutant expressing MCF7 with WBP2 knockdown were used for IB analysis with antibodies indicated. B: Vector, WBP2-WT, WBP2-Y192-231E mutant or WBP2-Y192-231F mutant-expressing MCF7 were co-transfected with TOPFlash (top panel) or ERE-Luciferase (bottom panel) reporter construct. For cells co-transfected ERE-luciferase, they were either left alone or stimulated with 50 ng/ml Wnt3a ligand for 16 hrs. TCF/ERα luciferase activities in various conditions were then assayed. **P<0.01, ***P<0.001, Student's t-test (2-tailed). C: Vector or WBP2-Y192-231E mutant-expressing MCF7 were treated with indicated concentrations of Tamoxifen(Tam) and/or FH535. Cell numbers were measured. D: Whole cell lysates from WBP2-Y192-231E mutant-expressing MCF7 treated with 2 μM Tam and/or 15 μM FH5353 were harvested at day 2-4 post-treatment and used for IB analysis with antibodies indicated.
Whole cell lysates from vector, WBP2-WT, WBP2-Y192-231E mutant and WBP2-Y192-231F mutant expressing MCF7 (A) or Y192-231E mutant expressing MCF7 with WBP2 knockdown (B) were used for IB analysis with antibodies indicated. Their expression levels were quantified in three independent experiments and the averages were presented relative to actin. Representative blots (order in lanes from left to right: vector, WBP2, Y192-231E, Y192F) were presented as insets to the bar graphs. **P<0.01, ***P<0.001, Student's t-test (2-tailed) relative to vector. […] TCF(C)/ER[…](D) luciferase activities in various conditions were then assayed and analyzed in relative to untreated vector control. **P<0.01, ***P<0.001, Student's t-test (2-tailed). […] Cell numbers were measured daily and compared in relative to vehicle treated vector-expressing cells on Day 0. […] Cell numbers were measured and compared in relative to vehicle-treated cells. Their […] were analyzed statistically with SPSS 13.0. […] Cell numbers were measured on day 2 and day 4 and compared in relative to vehicle-treated control at each day (Top Panel). […]

[1] = test system: WBP2-Y192-231E mutant-expressing MCF7; test: Cell proliferation (MTS / cell numbers) of WBP2-Y192-231E mutant-expressing MCF7
Method: as §1
Effect of knockdown of E2F1 and E2F3 on MCF7 cells overexpressing WBP2-Y192-231E. A. MCF7 cells expressing WBP2-Y192-231E were transfected with indicated siRNAs and knockdown efficiency was confirmed using western blotting. B. Cells were co-transfected with indicated siRNAs and E2F reporter plasmid and harvested for luciferase assay after 48 hours. Luciferase readings were normalized against constitutive TK promoter renilla luciferase readings. C. Cells were transfected with indicated siRNAs and BrdU incorporation assay was performed. Percentages of BrdU positive cells relative to control siRNA treated cells were plotted as bar charts. D. Cells were transfected with indicated siRNAs. MTS assay was performed on day 3. Percentages of cell proliferation relative to control siRNA treated cells were plotted as bar charts.
Whole cell lysates from vector, WBP2-WT, WBP2-Y192-231E mutant and WBP2-Y192-231F mutant expressing MCF7 (A) or Y192-231E mutant expressing MCF7 with WBP2 knockdown (B) were used for IB analysis with antibodies indicated. Their expression levels were quantified in three independent experiments and the averages were presented relative to actin. Representative blots (order in lanes from left to right: vector, WBP2, Y192-231E, Y192F) were presented as insets to the bar graphs. **P<0.01, ***P<0.001, Student's t-test (2-tailed) relative to vector. Vector, WBP2-WT, WBP2-Y192-231E mutant or WBP2-Y192-231F mutant-expressing MCF7 were cotransfected with TOPFlash(C) or ERE-Luciferase(D) reporter construct. For cells co-transfected ERE luciferase, they were either left alone or stimulated with 50 ng/ml Wnt3a ligand for 16 hrs. TCF(C)/ER[…](D) luciferase activities in various conditions were then assayed and analyzed in relative to untreated vector control. **P<0.01, ***P<0.001, Student's t-test (2-tailed). E: Vector or WBP2-Y192-231E mutant-expressing MCF7 were treated with indicated concentrations of 2 µM tamoxifen (Tam) and/or 15 µM FH535 for 4 days. Cell numbers were measured daily and compared in relative to vehicle treated vector-expressing cells on Day 0. F: Vector or WBP2-Y192-231E mutant-expressing MCF7 were treated with indicated concentrations (0-50 µM) of FH535 for 2 days. Cell numbers were measured and compared in relative to vehicle-treated cells. Their […] were analyzed statistically with SPSS 13.0. G: Whole cell lysates from WBP2-Y192-231E mutant-expressing MCF7 treated with 2 μM Tam and/or 15 μM FH5353 were harvested at day 2-4 post-treatment and used for IB analysis with antibodies indicated. H: Vector or WBP2-Y192-231E mutant-expressing MCF7 were treated with indicated concentrations of 100 nM fulvestrant and/or 15 µM FH535 for 4 days. Cell numbers were measured on day 2 and day 4 and compared in relative to vehicle-treated control at each day (Top Panel). These treated cells were harvested for IB analysis with antibodies indicated (Bottom Panel). […]

Row | Structure (SMILES) | ERα expression (ERα; WBP2 phospho-mimic expressing MCF7, one hundred nM fulvestrant, data not shown) | inhibition at 0.1 µM (vector-expressing MCF7) | inhibition at 0.1 µM ([1]; Homo sapiens, 96 h, MCF7 cells expressing Y192-231E mutant, day 4, 100 nM fulvestrant or 15 μM FH535, read-out: inhibition of growth / reduction of proliferation) | ERα expression (ERα) | growth inhibition ([1]; Y192-231E-expressing MCF7 treated with Tamoxifen) | retardation of proliferation ([1]; Y192-231E-expressing cells, higher doses of up to 2000 nM)
1 | C[C@]12CC[C@@H]3c4ccc(O)cc4C[C@@H](CCCCCCCCC[S+]([O-])CCCC(F)(F)C(F)(F)F)[C@H]3[C@@H]1CC[C@@H]2O (stereo partly drawn) [fulvestrant] | almost completely abolished | ~50% | ~40% |  |  | 
2 | CC/C(=C(\c1ccccc1)c1ccc(OCCN(C)C)cc1)c1ccccc1 [Tamoxifen] |  |  |  | but not Tamoxifen significantly reduced | No significant growth inhibition | unremarkable
